In publication PMC7318222, “A Family of Water‐Immiscible, Dipolar Aprotic, Diamide Solvents from Succinic Acid” (Chemsuschem, 2020) one finds Hexane misc. and Water misc. data, which are given here for 1 compound.

The nature of data set [1]: Miscibility with hexane. Type of data set: physicochemical. The settings on record: this work.
Data set [2] in a line: Miscibility with water. The format is physicochemical. The following applies: this work.

On to `CN(C)C=O` [DMF, N,N‐dimethylformamide], for which the Hexane misc. entry in data set [1] was “no^[a]”. In data set [2], the Water misc. entry is “yes^[a]”.
